We go through 25 compounds from patent US10206907B2, “Compounds useful for the treatment of degenerative and inflammatory diseases” (GALAPAGOS NV, priority 2008, dated 2019).

Sequence of Recombinant human JAK1 catalytic domain (P23458 850-1154): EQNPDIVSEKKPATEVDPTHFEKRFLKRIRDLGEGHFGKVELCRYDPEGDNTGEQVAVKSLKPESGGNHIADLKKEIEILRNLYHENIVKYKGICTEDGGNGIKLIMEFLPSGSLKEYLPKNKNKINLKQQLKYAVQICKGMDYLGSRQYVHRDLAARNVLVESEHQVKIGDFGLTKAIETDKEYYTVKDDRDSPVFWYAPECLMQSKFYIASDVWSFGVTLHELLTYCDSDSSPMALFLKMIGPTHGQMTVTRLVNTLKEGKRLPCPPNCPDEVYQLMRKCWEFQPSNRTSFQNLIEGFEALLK
Sequence of Recombinant human JAK2 catalytic domain (O60674 808-1132): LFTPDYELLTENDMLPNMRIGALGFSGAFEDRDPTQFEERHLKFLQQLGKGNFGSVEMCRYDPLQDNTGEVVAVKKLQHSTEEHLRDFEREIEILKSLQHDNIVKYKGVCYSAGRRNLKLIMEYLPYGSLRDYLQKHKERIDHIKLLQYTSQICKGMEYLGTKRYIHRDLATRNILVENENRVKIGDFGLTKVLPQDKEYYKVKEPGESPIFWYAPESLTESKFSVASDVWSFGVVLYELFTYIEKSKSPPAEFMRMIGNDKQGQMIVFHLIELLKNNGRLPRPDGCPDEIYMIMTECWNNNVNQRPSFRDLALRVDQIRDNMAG

One assay deals with Recombinant human JAK2 catalytic domain (Homo sapiens (Human), UniProt O60674). Description: JAK2 inhibition assay. The class given is biochemical. To be noted: semi-quantitative score. Here is the method:
After 90 min at 30° C., reactions were stopped by adding of 25 μL/well of 150 mM phosphoric acid. […] Plates were washed 6 times with 300 μL per well of a 75 mM phosphoric acid solution and the bottom of the plates was sealed. 40 μL/well of Microscint-20 was added, the top of the plates was sealed and readout was performed using the Topcount (Perkin Elmer). Kinase activity was calculated by subtracting counts per minute (cpm) obtained in the presence of a positive control inhibitor (10 μM staurosporine) from cpm obtained in the presence of vehicle. The ability of a test compound to inhibit this activity was determined as: Percentage inhibition=((cpm determined for sample with test compound present−cpm determined for sample with positive control inhibitor) divided by (cpm determined in the presence of vehicle−cpm determined for sample with positive control inhibitor))*100%.
Dose dilution series were prepared for the compounds enabling the testing of dose-response effects in the JAK2 assay and the calculation of the IC50 for each compound.
The IC50 is the concentration at which inhibition is half-maximal. `CN1CCN(c2ccc(NC(=O)c3ccc(-c4cccc5nc(NC(=O)C6CC6)nn45)cc3)cn2)CC1` [Compound 205, 4-[2-(Cyclopropanecarbonyl-amino)-[1,2,4]triazolo[1,5-a]pyridin-5-yl]-N-[6-(4-methyl-piperazin-1-yl)-pyridin-3-yl]-benzamide]: the IC50 lay within 501 to 1000 nM. On to `CC1(C)COCCN1Cc1ccc(-c2cccc3nc(NC(=O)C4CC4)nn23)cc1` [Compound 213, Cyclopropanecarboxylic acid {5-[4-(3,3-dimethyl-morpholin-4-ylmethyl)-phenyl]-[1,2,4]triazolo[1,5-a]pyridin-2-yl}-amide], for which the IC50 was 101 to 500 nM.

In the case of `NC(=O)c1cccc(OCc2ccc(-c3cccc4nc(NC(=O)C5CC5)nn34)cc2)c1` [Compound 251, 3-{4-[2-(Cyclopropanecarbonyl-amino)-[1,2,4]triazolo[1,5-a]pyridin-5-yl]-benzyloxy}-benzamide], the IC50 was in the range of 101 to 500 nM.

For `CCN1C[C@H]2C[C@@H]1CN2Cc1ccc(-c2cccc3nc(NC(=O)C4CC4)nn23)cc1` [Compound 253, Cyclopropanecarboxylic acid {5-[4-((1R,4R)-5-ethyl-2,5-diaza-bicyclo[2.2.1]hept-2-ylmethyl)-phenyl]-[1,2,4]triazolo[1,5-a]pyridin-2-yl}-amide], the IC50 is 501 to 1000 nM.

For `O=C(Nc1nc2cccc(-c3ccc(CN4CCOCC4=O)cc3)n2n1)C1CC1` [Compound 254, Cyclopropanecarboxylic Acid {5-[4-(3-oxo-morpholin-4-ylmethyl)-phenyl]-[1,2,4]triazolo[1,5-a]pyridin-2-yl}-amide], the half-maximal inhibitory concentration (IC50) fell in the range of 501 to 1000 nM. For the compound `COc1ccc(C(N)=O)cc1NCc1ccc(-c2cccc3nc(NC(=O)C4CC4)nn23)cc1` [Compound 255, 3-{4-[2-(Cyclopropanecarbonyl-amino)-[1,2,4]triazolo[1,5-a]pyridin-5-yl]-benzylamino}-4-methoxy-benzamide], the IC50 lay in the range of 501 to 1000 nM. Still for that read-out and setting: as for `Cc1ccc(NCc2ccc(-c3cccc4nc(NC(=O)C5CC5)nn34)cc2)c(F)n1` [Compound 256, Cyclopropanecarboxylic acid (5-{4-[(2-fluoro-6-methyl-pyridin-3-ylamino)-methyl]-phenyl}-[1,2,4]triazolo[1,5-a]pyridin-2-yl)-amide], the figure is 101 to 500 nM; as for `N#Cc1ccc(NCc2ccc(-c3cccc4nc(NC(=O)C5CC5)nn34)cc2)c(F)c1` [Compound 258, Cyclopropanecarboxylic acid (5-{4-[(4-cyano-2-fluoro-phenylamino)-methyl]-phenyl}-[1,2,4]triazolo[1,5-a]pyridin-2-yl)-amide], under 100 nM; as for `O=C(Nc1nc2cccc(-c3ccc(CN4CCCC4)cc3)n2n1)C1CC1` [Compound 260, Cyclopropanecarboxylic acid [5-(4-pyrrolidin-1-ylmethyl-phenyl)-[1,2,4]triazolo[1,5-a]pyridin-2-yl]-amide], 101 to 500 nM.

For the compound `O=C(Nc1nc2cccc(-c3ccc(CNc4ccccc4)cc3)n2n1)C1CC1` [Compound 261, Cyclopropanecarboxylic acid [5-(4-phenylaminomethyl-phenyl)-[1,2,4]triazolo[1,5-a]pyridin-2-yl]-amide], the 50% inhibitory concentration (IC50) was 101 to 500 nM. `CC(=O)N(C)C1CCN(Cc2ccc(-c3cccc4nc(NC(=O)C5CC5)nn34)cc2)C1` (stereo not drawn) [Compound 262, Cyclopropanecarboxylic acid (5-{4-[3-(acetyl-methyl-amino)-pyrrolidin-1-ylmethyl]-phenyl}-[1,2,4]triazolo[1,5-a]pyridin-2-yl)-amide]: the IC50 is 101 to 500 nM.

For `CN(C)C1CCN(Cc2ccc(-c3cccc4nc(NC(=O)C5CC5)nn34)cc2)C1` (stereo not drawn) [Compound 263], the IC50 is 101 to 500 nM. On to `O=C(Nc1nc2cccc(-c3ccc(CN4CCC(F)(F)C4)cc3)n2n1)C1CC1` [Compound 264, Cyclopropanecarboxylic acid {5-[4-(3,3-difluoro-pyrrolidin-1-ylmethyl)-phenyl]-[1,2,4]triazolo[1,5-a]pyridin-2-yl}-amide], for which the IC50 was in the range of 101 to 500 nM.

For the next assay, the target named is Recombinant human JAK1 catalytic domain (Homo sapiens (Human), UniProt P23458). Description: JAK1 inhibition assay. The class given is biochemical. As to conditions: semi-quantitative score. Here is the method:
Plates were washed 6 times with 300 μL per well of a 75 mM phosphoric acid solution and the bottom of the plates was sealed. 40 μL/well of Microscint-20 was added, the top of the plates was sealed and readout was performed using the Topcount (Perkin Elmer). Kinase activity was calculated by subtracting counts per minute (cpm) obtained in the presence of a positive control inhibitor (10 μM staurosporine) from cpm obtained in the presence of vehicle. The ability of a test compound to inhibit this activity was determined as: Percentage inhibition=((cpm determined for sample with test compound present−cpm determined for sample with positive control inhibitor) divided by (cpm determined in the presence of vehicle−cpm determined for sample with positive control inhibitor))*100%.
Dose dilution series were prepared for the compounds enabling the testing of dose-response effects in the JAK1 assay and the calculation of the IC50 for each compound.
On to `Cc1cc(CNc2ccc(-c3cccc4nc(NC(=O)C5CC5)nn34)cn2)nn1C` [Compound 173, N-(5-(6-((1,5-dimethyl-1H-pyrazol-3-yl)methylamino)pyridin-3-yl)-[1,2,4]triazolo[1,5-a]pyridin-2-yl)cyclopropanecarboxamide], for which the IC50 was over 1000 nM. As for `O=C(Nc1nc2cccc(-c3ccc(NS(=O)(=O)c4ccccc4)nc3)n2n1)C1CC1` [Compound 180, N-(5-(6-(phenylsulfonamido)pyridin-3-yl)-[1,2,4]triazolo[1,5-a]pyridin-2-yl)cyclopropanecarboxamide], the concentration for half-maximal inhibition (IC50) fell in the range of 101 to 500 nM. As for `N#CCN(CCc1ccccc1)C(=O)c1ccc(-c2cccc3nc(NC(=O)C4CC4)nn23)cc1` [Compound 181, N-(cyanomethyl)-4-(2-(cyclopropanecarboxamido)-[1,2,4]triazolo[1,5-a]pyridin-5-yl)-N-phenethylbenzamide], the IC50 is 101 to 500 nM.

As to `O=C(Nc1nc2cccc(-c3ccc(NS(=O)(=O)Cc4ccccc4)nc3)n2n1)C1CC1` [Compound 184, N-(5-(6-(phenylmethylsulfonamido)pyridin-3-yl)-[1,2,4]triazolo[1,5-a]pyridin-2-yl)cyclopropanecarboxamide], the IC50 was over 1000 nM. Take `O=C(Nc1nc2cccc(-c3cnn(Cc4cccnc4)c3)n2n1)C1CC1` [Compound 185, Cyclopropanecarboxylic Acid [5-(1-pyridin-3-ylmethyl-1H-pyrazol-4-yl)-[1,2,4]triazolo[1,5-a]pyridin-2-yl]-amide]: the IC50 was under 100 nM. Take `O=C(Nc1nc2cccc(-c3cn(Cc4ccccc4)nn3)n2n1)C1CC1` [Compound 187, N-(5-(1-benzyl-1H-1,2,3-triazol-4-yl)-[1,2,4]triazolo[1,5-a]pyridin-2-yl)cyclopropanecarboxamide]: the IC50 is 501 to 1000 nM. Turning to `O=C(Nc1nc2cccc(-c3cn(Cc4ccc(C(F)(F)F)nc4)nn3)n2n1)C1CC1` [Compound 188], the IC50 is over 1000 nM. Still for that read-out and setting: under `O=C(Nc1nc2cccc(-c3ccc(NS(=O)(=O)C4CC4)nc3)n2n1)C1CC1` [Compound 191, N-(5-(6-(cyclopropanesulfonamido)pyridin-3-yl)-[1,2,4]triazolo[1,5-a]pyridin-2-yl)cyclopropanecarboxamide] stands over 1000 nM; under `O=C(Nc1nc2cccc(-c3cn(Cc4ccccn4)nn3)n2n1)C1CC1` [Compound 193], over 1000 nM; under `O=C(Nc1nc2cccc(-c3ccc(S(=O)(=O)Cc4ccccn4)cc3)n2n1)C1CC1` [Compound 194, N-(5-(4-(pyridin-2-ylmethylsulfonyl)phenyl)-[1,2,4]triazolo[1,5-a]pyridin-2-yl)cyclopropanecarboxamide], 101 to 500 nM. The same measure, in the same setting: as for `O=C(Nc1nc2cccc(-c3ccc(S(=O)(=O)Cc4cccnc4)cc3)n2n1)C1CC1` [Compound 195, N-(5-(4-(pyridin-3-ylmethylsulfonyl)phenyl)-[1,2,4]triazolo[1,5-a]pyridin-2-yl)cyclopropanecarboxamide], the figure is 101 to 500 nM; as for `CN1CCN(c2ccc(NC(=O)c3ccc(-c4cccc5nc(NC(=O)C6CC6)nn45)cc3)cn2)CC1` [Compound 205, 4-[2-(Cyclopropanecarbonyl-amino)-[1,2,4]triazolo[1,5-a]pyridin-5-yl]-N-[6-(4-methyl-piperazin-1-yl)-pyridin-3-yl]-benzamide], 101 to 500 nM; as for `CC1(C)COCCN1Cc1ccc(-c2cccc3nc(NC(=O)C4CC4)nn23)cc1` [Compound 213, Cyclopropanecarboxylic acid {5-[4-(3,3-dimethyl-morpholin-4-ylmethyl)-phenyl]-[1,2,4]triazolo[1,5-a]pyridin-2-yl}-amide], 101 to 500 nM. As for `CC(=O)NC1CCN(C(=O)Cc2ccc(-c3cccc4nc(NC(=O)C5CC5)nn34)cc2)CC1` [Compound 323, Cyclopropanecarboxylic acid (5-{4-[2-(4-acetylamino-piperidin-1-yl)-2-oxo-ethyl]-phenyl}-[1,2,4]triazolo[1,5-a]pyridin-2-yl)-amide], the 50% inhibitory concentration (IC50) was in the range of 501 to 1000 nM.
